Measured values as given in patent publication US20070110751A1, “Compositions and methods for reducing infarct size” (priority 2005, published 2007).
Read-outs that look alike come from different tables or passages of the source.

Legend:
C57/BL6 mice = type: in vivo, mouse
Description: Complexes were immunoprecipitated from 300 μg of total protein lysates from each of the indicated treatment groups. ^32P-labeling of histones H1 was measured using a standard Cdk2 kinase assay. […] IFS in DETA/NO-treated mice compared to control Vehicle-treated mice are shown (*P<0.05; n=4 per group).
IFS in Roscovitine-treated mice compared to control vehicle-treated mice are shown (*P<0.001; n=6 per group). […] Ventricular lysates were probed for the indicated proteins. Mean IFS sizes after 24 hours of reperfusion are shown. (*P<0.05 for Cdk2^+/+ versus Cdk2^−/− IFS; n=5 per group).
Male mice were subjected to myocardial ischemia/reperfusion as previously described (Wang, G., et al. 2005. Am. J. Physiol. Heart Circ. Physiol 288:H1290-H1295). Pentobarbital-anesthetized (50 mg/kg body wt i.p.) mice were intubated for positive pressure ventilation with oxygen-enriched room air during the surgical procedure. After left thoracotomy between ribs three and four, the pericardium was opened and a silk 8-0 suture was looped under the left anterior descending coronary artery 1-3 mm from the tip of the normally positioned left atrium. Ischemia was induced by ligation of the suture (a 1 to 2 mm section of PE-10 tubing was placed between the suture and the artery to prevent damage to the vessel). Rectal temperature was continuously measured and maintained at 36.5-37.5° C. Following a 30-min coronary artery occlusion, the suture was removed to allow coronary reperfusion followed by closure of the chest wall. After 24 hours of coronary artery reperfusion the heart was excised and postmortem perfused as previously described (Wang, G., et al. 2005. Am. J. Physiol. Heart Circ. Physiol 288:H1290-H1295). The infarct region was determined by perfusion with a 1% solution of 2,3,5-triphenyltetrazolium chloride (TTC) in phosphate buffer (pH 7.4, 37° C.). To delineate the risk region, the coronary artery was tied at the site of the previous occlusion and the aortic root perfused with a 1% solution of Evans blue dye. Infarct size was measured by planimetry with NIH Image and expressed as a percentage of the area at risk.
Limitation of IFS by pharmacological delayed preconditioning of the heart was induced with the nitric oxide donor diethylenetriamine/nitric oxide (DETA/NO) as previously reported (Wang, G., et al. 2005. Am. J. Physiol. Heart Circ. Physiol 288:H1290-H1295). After dissecting free the left jugular vein in pentobarbital-anesthetized WT mice, DETA/NO was given in 4 boluses 24-hours prior to 30-min coronary artery occlusion (0.1 mg/kg×4, i.v.).

Cdk2 = target: T1, Cdk2 (Mus musculus, UniProt P97377); experiment: Cdk2 immune complex kinase assay on ventricular lysates of treated mice (histones H1 as substrate); type: in vivo; conditions: DETA/NO 0.1 mg/kg x 4 i.v. 24 hours before I/R, compared to vehicle-treated hearts
T1 construct: Cdk2 complexes were immunoprecipitated from ventricular lysates from each of the indicated treatment groups; from tissue; host or cells: mouse heart ventricle (C57/BL6 mice, treated in vivo)
Description: Complexes were immunoprecipitated from 300 μg of total protein lysates from each of the indicated treatment groups. ^32P-labeling of histones H1 was measured using a standard Cdk2 kinase assay.
Ventricular lysates were probed for the indicated proteins.
Western blotting was performed using the identical protein lysates. Antibodies were purchased from Santa Cruz Biotechnology (Santa Cruz). Protein expression was visualized using horseradish peroxidase-conjugated second antibodies and enhanced chemiluminescence reagents (Amersham Biosciences). Nonsaturated autoradiographs were quantitated with SigmaScan.
Cdk2 complexes were immunoprecipitated from ventricular lysates from each of the indicated treatment groups.

Row | SMILES | infarct size (IF % of the A@R) (C57/BL6 mice; DETA/NO 0.1 mg/kg x 4 i.v. 24 hours before 30-min coronary occlusion, wildtype mice, mean ± SEM, P<0.05 vs vehicle, n=4 per group) | reduction in infarct size compared to vehicle treated mice (C57/BL6 mice; DETA/NO 0.1 mg/kg x 4 i.v. 24 hours before I/R injury, vs vehicle) [%] | Cdk2 activity in hearts after 30 minutes of ischemia (Cdk2) | Cdk2 activity in hearts after 30 minutes of ischemia (Cdk2; listed as NO donor) | reduction in infarct size compared to vehicle treated mice (C57/BL6 mice; Roscovitine 2.8 mg/gm i.p. two hours prior to ischemia, 30 min occlusion, 24 h reperfusion, vs DMSO vehicle) [%] | infarct size (IFS % of A@R) (C57/BL6 mice; Roscovitine 2.8 mg/gm intraperitoneally two hours prior to ischemia, 30 min LAD occlusion, 24 h reperfusion, mean ± SEM, P<0.001 vs vehicle (DMSO), n=6 per group)
1 | NCCN(CCN)/[N+]([O-])=N/O [DETA/NO, diethylenetriamine/nitric oxide] | 35.0±3.7 IF % of the A@R | 32 | decreased Cdk2 activity | blocked the upregulation of Cdk2 |  | 
2 | CC[C@H](CO)Nc1nc(NCc2ccccc2)c2ncn(C(C)C)c2n1 [Roscovitine, 6-Benzylamino-2-(R)-[(1-ethyl)-2-hydroxyethylamino]-9-isopropyl-purine] |  |  |  |  | 36.7 | 34.2±2.6 IFS % of A@R
